This note sets out measurements from ChEMBL document CHEMBL4823294, “Discovery of cinnoline derivatives as potent PI3K inhibitors with antiproliferative activity” (Bioorg Med Chem Lett, 2021).

The structures appear in SMILES notation. The source made the active and inactive calls. The calls are words filed in the database; no cut-off is given here.

The target in assay [1] is T1, Phosphatidylinositol 4,5-bisphosphate 3-kinase catalytic subunit delta isoform (Homo sapiens, UniProt O00329).
T1 sequence (O00329 whole entry): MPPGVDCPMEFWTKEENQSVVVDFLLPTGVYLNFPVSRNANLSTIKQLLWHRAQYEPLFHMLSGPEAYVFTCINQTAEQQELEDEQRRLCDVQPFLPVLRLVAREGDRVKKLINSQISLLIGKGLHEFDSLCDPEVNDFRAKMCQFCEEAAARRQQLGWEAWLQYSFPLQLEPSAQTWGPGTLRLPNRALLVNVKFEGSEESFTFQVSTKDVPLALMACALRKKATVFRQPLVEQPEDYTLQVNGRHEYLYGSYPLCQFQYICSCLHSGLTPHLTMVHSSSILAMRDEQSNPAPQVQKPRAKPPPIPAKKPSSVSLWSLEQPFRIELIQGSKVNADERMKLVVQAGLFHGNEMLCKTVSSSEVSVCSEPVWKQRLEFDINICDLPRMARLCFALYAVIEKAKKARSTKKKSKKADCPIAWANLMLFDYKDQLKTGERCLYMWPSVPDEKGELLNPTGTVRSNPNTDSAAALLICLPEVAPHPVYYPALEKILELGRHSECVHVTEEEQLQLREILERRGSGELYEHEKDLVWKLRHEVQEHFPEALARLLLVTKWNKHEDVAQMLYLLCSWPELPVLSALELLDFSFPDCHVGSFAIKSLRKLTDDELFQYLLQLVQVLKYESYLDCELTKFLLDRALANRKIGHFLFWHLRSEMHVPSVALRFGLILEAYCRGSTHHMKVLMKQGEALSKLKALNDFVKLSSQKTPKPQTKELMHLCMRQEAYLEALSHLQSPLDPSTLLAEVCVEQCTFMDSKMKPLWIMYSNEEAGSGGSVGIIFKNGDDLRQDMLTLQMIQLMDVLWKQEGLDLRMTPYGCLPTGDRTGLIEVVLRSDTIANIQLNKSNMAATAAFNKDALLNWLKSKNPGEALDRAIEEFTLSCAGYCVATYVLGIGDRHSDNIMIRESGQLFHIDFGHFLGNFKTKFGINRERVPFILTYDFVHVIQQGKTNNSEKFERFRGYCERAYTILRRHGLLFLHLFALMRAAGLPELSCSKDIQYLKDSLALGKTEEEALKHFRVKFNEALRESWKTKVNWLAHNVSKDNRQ
In words: Inhibition of PI3Kdelta (unknown origin).

In assay [2] the target is Phosphatidylinositol 4,5-bisphosphate 3-kinase catalytic subunit alpha isoform (Homo sapiens, UniProt P42336). In words: Inhibition of PI3Kalpha (unknown origin).
Sequence of Phosphatidylinositol 4,5-bisphosphate 3-kinase catalytic subunit alpha isoform (P42336 whole entry, canonical isoform): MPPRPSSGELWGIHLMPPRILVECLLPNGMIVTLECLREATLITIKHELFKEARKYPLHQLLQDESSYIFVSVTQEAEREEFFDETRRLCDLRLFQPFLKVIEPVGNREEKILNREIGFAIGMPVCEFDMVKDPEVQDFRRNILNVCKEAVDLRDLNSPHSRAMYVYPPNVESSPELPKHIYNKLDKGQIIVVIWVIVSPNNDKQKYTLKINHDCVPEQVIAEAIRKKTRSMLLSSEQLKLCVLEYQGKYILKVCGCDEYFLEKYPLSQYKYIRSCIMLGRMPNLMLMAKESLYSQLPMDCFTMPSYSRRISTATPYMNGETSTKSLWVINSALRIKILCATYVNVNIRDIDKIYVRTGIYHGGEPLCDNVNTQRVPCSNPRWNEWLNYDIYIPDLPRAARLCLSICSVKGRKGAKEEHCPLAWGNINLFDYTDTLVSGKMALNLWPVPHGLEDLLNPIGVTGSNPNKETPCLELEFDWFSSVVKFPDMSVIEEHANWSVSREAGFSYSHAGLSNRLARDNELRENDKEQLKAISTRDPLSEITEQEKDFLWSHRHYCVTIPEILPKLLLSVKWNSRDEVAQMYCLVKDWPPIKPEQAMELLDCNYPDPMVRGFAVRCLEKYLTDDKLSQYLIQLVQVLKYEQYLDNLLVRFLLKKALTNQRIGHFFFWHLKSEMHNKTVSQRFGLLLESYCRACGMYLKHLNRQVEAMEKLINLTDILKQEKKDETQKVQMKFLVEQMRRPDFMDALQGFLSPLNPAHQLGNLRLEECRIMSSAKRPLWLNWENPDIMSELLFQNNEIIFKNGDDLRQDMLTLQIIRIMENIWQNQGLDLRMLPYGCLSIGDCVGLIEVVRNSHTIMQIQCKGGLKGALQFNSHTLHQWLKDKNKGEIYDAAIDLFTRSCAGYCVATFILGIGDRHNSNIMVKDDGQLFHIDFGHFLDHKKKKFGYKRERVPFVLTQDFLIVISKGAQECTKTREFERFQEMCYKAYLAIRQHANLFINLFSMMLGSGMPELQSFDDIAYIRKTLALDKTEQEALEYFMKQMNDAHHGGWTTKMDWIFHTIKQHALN
Assay [3] has as its target Phosphatidylinositol 4,5-bisphosphate 3-kinase catalytic subunit beta isoform (Homo sapiens, UniProt P42338). In words: Inhibition of PI3Kbeta (unknown origin).
The target of assay [4] is Phosphatidylinositol 4,5-bisphosphate 3-kinase catalytic subunit gamma isoform (Homo sapiens, UniProt P48736). Description: Inhibition of PI3Kgamma (unknown origin).
Sequence of Phosphatidylinositol 4,5-bisphosphate 3-kinase catalytic subunit gamma isoform (P48736 whole entry, canonical isoform): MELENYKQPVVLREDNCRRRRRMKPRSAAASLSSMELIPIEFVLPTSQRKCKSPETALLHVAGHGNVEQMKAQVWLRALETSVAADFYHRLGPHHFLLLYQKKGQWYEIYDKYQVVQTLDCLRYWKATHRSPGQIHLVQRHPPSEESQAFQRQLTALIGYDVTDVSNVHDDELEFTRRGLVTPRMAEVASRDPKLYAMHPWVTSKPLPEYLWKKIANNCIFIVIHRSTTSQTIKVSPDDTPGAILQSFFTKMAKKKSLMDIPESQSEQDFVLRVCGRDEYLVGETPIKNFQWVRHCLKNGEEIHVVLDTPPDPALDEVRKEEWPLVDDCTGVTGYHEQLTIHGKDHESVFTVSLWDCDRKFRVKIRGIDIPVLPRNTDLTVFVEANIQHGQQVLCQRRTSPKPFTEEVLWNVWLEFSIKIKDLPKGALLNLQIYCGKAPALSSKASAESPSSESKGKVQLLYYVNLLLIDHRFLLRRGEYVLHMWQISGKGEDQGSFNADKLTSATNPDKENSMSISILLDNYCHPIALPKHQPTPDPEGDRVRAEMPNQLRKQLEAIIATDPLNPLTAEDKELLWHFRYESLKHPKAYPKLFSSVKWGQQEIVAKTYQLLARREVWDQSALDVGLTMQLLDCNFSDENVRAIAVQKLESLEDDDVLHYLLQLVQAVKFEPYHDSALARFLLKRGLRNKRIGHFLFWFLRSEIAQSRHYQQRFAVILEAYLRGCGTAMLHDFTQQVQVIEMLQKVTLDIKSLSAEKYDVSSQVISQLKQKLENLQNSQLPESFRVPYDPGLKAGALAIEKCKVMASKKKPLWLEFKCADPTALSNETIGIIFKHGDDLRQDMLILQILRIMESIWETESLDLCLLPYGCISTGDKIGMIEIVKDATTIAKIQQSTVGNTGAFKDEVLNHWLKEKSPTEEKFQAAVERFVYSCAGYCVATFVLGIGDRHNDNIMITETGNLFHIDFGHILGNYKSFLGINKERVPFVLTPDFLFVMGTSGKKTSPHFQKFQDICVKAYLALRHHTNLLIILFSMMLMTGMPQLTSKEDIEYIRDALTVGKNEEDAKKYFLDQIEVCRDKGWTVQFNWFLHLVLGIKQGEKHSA
For assay [5], the system named is U-87 MG. Description: Inhibition of Akt phosphorylation at Ser473 in human U-87 MG cells at 1 to 5 uM by Western blotting analysis. Type of assay: cell-based. Particulars: dose 1-5 µM. (In general: A western blot detects proteins with antibodies after separation by electrophoresis.)
The test system of assay [6] is U-87 MG. Description: Inhibition of Akt expression in human U-87 MG cells at 1 uM by Western blotting analysis. Type of assay: cell-based.
The test system of assay [7] is U-87 MG. Description: Inhibition of Akt expression in human U-87 MG cells at 5 uM by Western blotting analysis. Type of assay: cell-based.
Assay [8] relates to U-87 MG. In words: Antiproliferative activity against human U-87 MG cells. Type of assay: functional, cell-based, U-87MG ATCC.
In assay [9] the test system is HeLa. In words: Antiproliferative activity against human HeLa cells. Type of assay: functional, cell-based.
For assay [10], the system named is HepG2. In words: Antiproliferative activity against human HepG2 cells. It is filed as functional, cell-based.
Assay [11] deals with A549. In words: Antiproliferative activity against human A549 cells. It is filed as functional, cell-based.
Assay [12] deals with HL-60. In words: Antiproliferative activity against human HL-60 cells. It is filed as functional, cell-based.
The test system of assay [13] is MCF7. In words: Antiproliferative activity against human MCF7 cells. Type of assay: functional, cell-based.

Sequence of Phosphatidylinositol 4,5-bisphosphate 3-kinase catalytic subunit beta isoform (P42338 whole entry, canonical isoform): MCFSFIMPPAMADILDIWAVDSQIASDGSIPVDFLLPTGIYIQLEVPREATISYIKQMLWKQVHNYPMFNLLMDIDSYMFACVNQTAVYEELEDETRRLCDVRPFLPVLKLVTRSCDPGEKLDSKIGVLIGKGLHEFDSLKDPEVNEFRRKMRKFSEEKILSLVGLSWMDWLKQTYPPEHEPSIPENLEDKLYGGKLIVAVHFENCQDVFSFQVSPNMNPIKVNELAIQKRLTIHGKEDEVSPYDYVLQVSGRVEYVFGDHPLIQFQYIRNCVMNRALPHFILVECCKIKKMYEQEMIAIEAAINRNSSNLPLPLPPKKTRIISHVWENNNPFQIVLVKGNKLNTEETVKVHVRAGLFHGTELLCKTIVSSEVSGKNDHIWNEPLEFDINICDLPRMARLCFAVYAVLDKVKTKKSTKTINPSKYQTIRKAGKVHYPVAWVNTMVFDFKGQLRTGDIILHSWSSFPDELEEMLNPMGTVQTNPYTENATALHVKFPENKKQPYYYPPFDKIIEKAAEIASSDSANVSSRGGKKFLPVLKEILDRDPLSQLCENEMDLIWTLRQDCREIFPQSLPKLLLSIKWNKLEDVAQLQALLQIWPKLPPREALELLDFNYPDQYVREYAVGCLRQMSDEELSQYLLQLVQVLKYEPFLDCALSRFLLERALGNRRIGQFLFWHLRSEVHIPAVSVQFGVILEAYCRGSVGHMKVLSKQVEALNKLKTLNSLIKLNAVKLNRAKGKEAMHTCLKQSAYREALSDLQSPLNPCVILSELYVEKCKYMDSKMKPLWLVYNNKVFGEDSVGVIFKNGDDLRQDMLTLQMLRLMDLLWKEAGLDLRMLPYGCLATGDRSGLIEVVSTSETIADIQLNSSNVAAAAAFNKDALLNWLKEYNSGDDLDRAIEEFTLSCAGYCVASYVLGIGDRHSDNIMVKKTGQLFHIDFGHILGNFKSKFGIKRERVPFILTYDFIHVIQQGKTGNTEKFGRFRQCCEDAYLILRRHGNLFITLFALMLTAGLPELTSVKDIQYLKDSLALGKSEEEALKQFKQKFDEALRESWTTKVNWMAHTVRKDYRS

As to `O=S(=O)(Nc1cc(-c2ccc3nncc(-c4cnc(N5CCOCC5)nc4)c3c2)cnc1Cl)c1ccccc1`, the IC50 (as a rule, the concentration needed to halve the response being measured) in assay [1] stood at 0.65 nM; in assay [2], 0.936 nM; in assay [3] it was 4.72 nM; in [4], 4.42 nM; in assay [8] it was 264 nM; in assay [9] it was 2040 nM. In addition, the IC50 is greater than 16600 nM in assay [10], 10100 nM in assay [11], 1140 nM in [12] and 31100 nM in assay [13]. Further, the inhibition result in assay [5] and in assay [7] was “Active” in each case. In assay [6], the inhibition result was “inactive”.
`COc1ncc(-c2ccc3nncc(Nc4ccccc4)c3c2)cc1NS(=O)(=O)c1ccccc1` registered an IC50 in assay [1] of 30.3 nM. This counts as double-digit nanomolar.
On to `O=S(=O)(Nc1cc(-c2ccc3nncc(N4CCNCC4)c3c2)cnc1Cl)c1ccccc1`, for which the IC50 in [1] is 1.58 nM; in assay [8], 589 nM; in assay [9], greater than 16600 nM; in assay [10], greater than 50000 nM; in assay [11] it was greater than 50000 nM; in assay [12], greater than 16600 nM. Also, the IC50 in assay [13] was greater than 50000 nM.
Consider `CCOc1cnnc2ccc(-c3cnc(Cl)c(NS(=O)(=O)c4ccccc4)c3)cc12`, for which the half-inhibitory concentration (IC50) turned out to be 0.4 nM in assay [1], 1.78 nM in assay [2], 5.61 nM in [3] and 4.73 nM in [4].
For `O=S(=O)(Nc1cc(-c2ccc3nncc(N4CCOCC4)c3c2)cnc1Cl)c1ccccc1`, the IC50 in [1] turned out to be 0.85 nM; in assay [2], 1.55 nM; in assay [3], 14.5 nM; in assay [4], 4.36 nM; in assay [8], 2020 nM; in assay [9], 7700 nM. The half-inhibitory concentration (IC50) in assay [10] is 18300 nM; in assay [11], greater than 16600 nM; in assay [12], greater than 16600 nM; in assay [13], 13100 nM.
With `CC1CCN(c2cnnc3ccc(-c4cnc(Cl)c(NS(=O)(=O)c5ccccc5)c4)cc23)CC1`, the IC50 was found to be 0.32 nM in assay [1], 1.61 nM in assay [2], 5.33 nM in assay [3] and 3.66 nM in [4].
Regarding `O=S(=O)(Nc1cc(-c2ccc3nncc(N4CCCC4)c3c2)cnc1Cl)c1ccccc1`, the IC50 in assay [1] stood at 0.87 nM; in assay [2], 2.64 nM; in assay [3] it was 5.41 nM; in [4], 5.97 nM.
In [1], `COc1ncc(-c2ccc3nncc(Cl)c3c2)cc1NS(=O)(=O)c1ccccc1` gave a half-maximal inhibitory concentration (IC50) of 4.42 nM.
`COc1ccc(CNc2cnnc3ccc(-c4cnc(Cl)c(NS(=O)(=O)c5ccccc5)c4)cc23)cc1` gave an IC50 in [1] of 1.02 nM. Against the preceding molecule, the IC50 is about 4.3-fold lower.
In turn, `CCCCCCOc1cnnc2ccc(-c3cnc(Cl)c(NS(=O)(=O)c4ccccc4)c3)cc12` showed an IC50 in assay [1] of 215 nM.
For the molecule `Oc1cccc(-c2nc(N3CCOCC3)c3oc4ncccc4c3n2)c1` [PI-103], the results for the IC50 in assay [9] and in assay [12] were 230 nM and 65.6 nM, respectively.
The molecule `C[C@@H](Nc1cnnc2ccc(-c3cnc(Cl)c(NS(=O)(=O)c4ccccc4)c3)cc12)c1ccccc1` yielded an IC50 in [1] of 5.46 nM.
Regarding `O=S(=O)(Nc1cc(-c2ccc3nnccc3c2)cnc1Cl)c1ccccc1`, the IC50 in [1] amounted to 19.4 nM.
The same measure, in the same setting: with `O=S(=O)(Nc1cc(-c2ccc3nncc(Cl)c3c2)cnc1Cl)c1ccccc1` the figure was 0.55 nM; with `CC(=O)Nc1ccc(Nc2cnnc3ccc(-c4cnc(Cl)c(NS(=O)(=O)c5ccccc5)c4)cc23)cc1`, 3.3 nM.
Consider `O=S(=O)(Nc1cc(-c2ccc3nncc(N4CCCCC4)c3c2)cnc1Cl)c1ccccc1`, for which the IC50 in assay [1] amounted to 0.67 nM; in assay [2], 1.33 nM; in assay [3], 4.6 nM; in assay [4] it was 3.19 nM.
On to `COc1ncc(-c2ccc3nncc(Nc4ccc(NC(C)=O)cc4)c3c2)cc1NS(=O)(=O)c1ccccc1`, for which, in assay [1], the IC50 stood at 8.57 nM.
As to `O=S(=O)(Nc1cc(-c2ccc3nncc(-c4ccc(N5CCOCC5)cc4)c3c2)cnc1Cl)c1ccccc1`, the half-inhibitory concentration (IC50) was 0.4 nM in assay [1], 0.711 nM in [2], 3.04 nM in assay [3] and 2.29 nM in assay [4].
Turning to `O=S(=O)(Nc1cc(-c2ccc3nncc(Nc4ccccc4)c3c2)cnc1Cl)c1ccccc1`, in assay [1], the IC50 amounted to 4.47 nM.
In [1], `O=S(=O)(Nc1cc(-c2ccc3nncc(O)c3c2)cnc1Cl)c1ccccc1` came in with an IC50 of 833 nM.
In the case of `O=S(=O)(Nc1cc(-c2ccc3nncc(-c4ccncc4)c3c2)cnc1Cl)c1ccccc1`, the IC50 in assay [1] is 0.36 nM; in assay [2] it was 0.71 nM; in assay [3], 1.7 nM; in assay [4], 2.25 nM.
On to `COc1ncc(-c2ccc3nncc(N4CCOCC4)c3c2)cc1NS(=O)(=O)c1ccccc1`, for which 4.08 nM corresponded to half-maximal inhibition in assay [1] (IC50).
With `O=S(=O)(Nc1cc(-c2ccc3nncc(-c4ccc(N5CCOCC5)nc4)c3c2)cnc1Cl)c1ccccc1`, the IC50 in [1] came to 0.28 nM; in assay [2], 0.709 nM; in assay [3], 1.54 nM; in assay [4] it was 1.89 nM.
For the molecule `COc1cnnc2ccc(-c3cnc(Cl)c(NS(=O)(=O)c4ccccc4)c3)cc12`, the IC50 in assay [1] was found to be 1.1 nM.
`C[C@H](Nc1cnnc2ccc(-c3cnc(Cl)c(NS(=O)(=O)c4ccccc4)c3)cc12)c1ccccc1` yielded an IC50 in assay [1] of 27 nM. Against the preceding molecule, the IC50 is about 25-fold higher.
In assay [1], `O=S(=O)(Nc1cc(-c2ccc3nncc(-c4ccccc4)c3c2)cnc1Cl)c1ccccc1` came in with an IC50 of 2.91 nM.
Consider `O=S(=O)(Nc1cc(-c2ccc3nncc(-n4ccnc4)c3c2)cnc1Cl)c1ccccc1`, for which the IC50 in [1] was 0.21 nM; in assay [2] it was 1.37 nM; in assay [3], 2.39 nM; in assay [4] it was 4.02 nM; in assay [8], 16700 nM; in assay [9] it was greater than 50000 nM. The IC50 in assay [10] is greater than 16600 nM; in assay [11], greater than 50000 nM; in [12], 2400 nM; in assay [13] it was 39900 nM.
